Assay [1] has as its system A. fumigatus - LSPQ 204305. Briefly: Disk diffusion assay, minimum effective concentration (MEC) and zone of inhibition (ZOI). The class given is cell-based, Aspergillus fumigatus. On the technique in general: In agar diffusion tests the substance spreads into inoculated agar from a disc or well.
Another assay deals with A. flavus - ATCC 204304. Described as above. It is filed as cell-based, Aspergillus flavus.
Another assay concerns C. albicans SC5314. Briefly: Mouse model of disseminated candidiasis, survival. It is filed as in vivo. The settings on record: CD-1 mice infected i.v. with C. albicans SC5314; 1 or 3 mg/kg i.p. once daily for 4 days. As for the experimental part:
Compound 2(a) was provided as a dry powder with an estimated purity of 95+%. Fungizone (amphotericin B desoxycholate, to be used as a comparitor), was also provided as a dry powder with an estimated purity of 95+%. The compound 2(a) and Fungizone were stored as dry powders at −80° C. until the day of administration.
Female mice (species Mus musculus, strain CD-1, Charles River) with body weight range of 22-24 g were used in the study. […] All animal experiments were performed at the Step-Justine Hospital (Montreal, Quebec) according to ethical guidelines of animal experimentation of the ethical committee of the hospital. During the study, dead or apparently sick animals were promptly removed and sick mice were euthanized upon removal from the cage.
The animals were maintained in rooms under controlled conditions of temperature (23±2° C.), humidity (45±5%), photoperiodicity (12 hrs light/12 hrs dark) and air exchange. The animals were housed in polycarbonate cages (4/single cage) equipped to provide food and water. Sterile wood shavings were used for animal bedding and the bedding was replaced every other day. […]
The treatment regimen was repeated once daily for a total of 4 days. […] Moribund animals were scored as non-survivors and euthanized by CO2 inhalation. […]

Assay [2] concerns 60 different human tumor cell lines. Briefly: NCI in vitro antiproliferative screen (SRB), GI50. It is filed as cell-based. As for the experimental part:
In vitro antipoliferative study of Compound 2a was performed by the National Cancer Institute (National Institutes of Health, Bethesda, Md., USA) against a panel of cancer cell lines in order to determine the concentrations needed to obtain a 50% inhibition of cell proliferation (IC50). The operation of this unique screen utilizes 60 different human tumor cell lines, representing leukemia, melanoma, and cancers of the lung, colon, brain, ovary, breast prostate and kidney. Compound 2(a) was provided as a lyophilized powder with an estimated purity of 90+%. The compound was stored at −20° C. until day of use.
The human tumor cell lines of the cancer-screening panel were grown in RPMI 1640 medium containing 5% fetal bovine serum and 2 mM L-glutamine. For a typical screening experiment, cells were inoculated into 96 well microtiter plates in 100 μl at plating densities ranging from 5000 to 40,000 cells/well depending on the doubling time of individual cell lines (Table 8). […]
Following drug addition, the plates were incubated for an additional 48 hours at 37° C., 5% CO2, 95% air, and 100% relative humidity. […] Bound stain was subsequently solubilized with 10 mM trizma base, and the absorbance was read on an automated plate reader at a wavelength of 515 nm. […]
The growth inhibitory power of compound 2(a) was measured by NCl utilizing the GI50 value, rather than the classical IC50 value. […]

The next assay concerns Aspergillus species. Briefly: Broth microdilution MIC determination, filamentous fungi. On the technique in general: In broth dilution the organism is exposed to a series of concentrations in liquid medium.
The next assay concerns Candida species. Briefly: Broth microdilution MIC determination (NCCLS M27-A adapted), yeasts.

Structures are written as SMILES. Values after ≈ are worked out from the molar mass of the structure shown.

Protocol for Aspergillus species: (§1) Test compound preparation: The test article was prepared as 100× stock solutions in DMSO, with concentrations ranging from 3.2 mg/ml to 0.0625 mg/ml (a two-fold dilution series over 10 points). The first dilution (3.2 mg/ml) was prepared by resuspending 0.5 mg of each test article in 156.25 μl of DMSO.
(§2) Inoculum preparation: For fungal strains, the inoculum was prepared as follows. From an overnight culture in Yeast Media broth, cell density was adjusted in 0.85% saline to 0.5 McFarland. This procedure yielded a stock suspension of about 5×10^6 cells/ml. Following thorough vortexing, a working suspension was prepared by diluting the stock 1:50 in RPMI 1640, and then further diluting it 1:20 with RPMI 1640 to obtain the 2× test inoculum (about 5×10^3 cells/ml). For filamentous fungi, the inoculum was prepared as follows. From a spore suspension kept at 4° C., an appropriate dilution in 0.85% saline was made to obtain a final optical density 600 between 0.09-0.11. A working suspension was then prepared by diluting the spore suspension 50 times in RPMI to obtain the 2× test inoculum (about 1×10^5 CFU/ml).
(§3) MIC Determination: The 100× test article solutions were diluted 50 times in RPMI 1640, MH or BHI media and dispensed in a 96 well plate, one concentration per column, 10 columns in total. The 11th column contained RPMI 1640 with 1% DMSO with cells, the 12th column contained 100 μl of RPMI 1640 alone.
(§4) 50 μl of the final cell dilution (yeast, filamentous fungi or bacteria) of each indicator strain was added to each corresponding well of the microplate containing 50 μl of diluted drug or media alone. Assay plates were incubated at 35° C. for up to 72 hrs. MIC readings were determined at 24 and 48 hrs for the Candida and Aspergillus species, and at 48 and 72 hrs for Cryptococcus neoformans. MIC readout for each indicator was determined as the lowest concentration of test compound resulting in total absence of growth.
Protocol for Candida species: as §1, §2, §3, §4

With `CC(C=CCCC=CC=CC=CC=CC(=O)NC1=C(O)CCC1=O)C(O)C(C)C(O)C=CC=CC=CC=CC=CCC(OC1OC(C)C(O)C(O)C1O)C(C)C(=O)CC(O)CC(O)CC(O)C=CCC(O)CC(O)CC(O)CC(O)C=CCC(O)CC(O)CCCN` (stereo not shown) [Compound 2(a), 56-Amino-15,17,33,35,37,41,43,45,47,51,53-undecahydroxy-14,16,30-trimethyl-31-oxo-29-(3,4,5-trihydroxy-6-methyl-tetrahydro-pyran-2-yloxy)-hexapentaconta-2,4,6,8,12,18,20,22,24,26,38,48-dodecaenoic acid (2-hydroxy-5-oxo-cyclopent-1-enyl)-amide], the “ZOI (zone of inhibition of fungal growth at the MEC)” value is on record as 2.7 mm in assay [1] (Aspergillus fumigatus, at MEC, 24 hours of incubation) and 2.7 mm in the assay with A. flavus - ATCC 204304 (Aspergillus flavus, at MEC, 24 hours of incubation). The “antifungal activity against Aspergillus fumigatus” value in assay [1] (ZOI after 24 hours at 35° C.) is recorded as “active”. In the assay on A. flavus - ATCC 204304 (ZOI after 24 hours at 35° C.), the “antifungal activity against Aspergillus flavus” value is recorded as “active”. The “increase of median survival time of infected mice” value in the assay on C. albicans SC5314 is 4 fold. The GI50 level entry in assay [2] (SN12C/renal carcinoma, HOP92/non-small cell lung carcinoma, HCC2998/colon carcinoma) is given as “nanomolar or picomolar level”. Further, the “anticancer activity against human tumor cell lines” value in assay [2] (all cell lines assayed in the NCI screening panel) is “effective against all the human tumor cell lines”. Moreover, the minimal inhibitory concentration (MIC) with Aspergillus species (24 h, Aspergillus flavus ATCC 204304, 24 hrs) came out at 4 µg/mL (≈ 3.08 µM); against Aspergillus species (24 h, Aspergillus fumigatus ATCC 204305, 24 hrs), 16 µg/mL (≈ 12.3 µM); in the assay on Aspergillus species (48 h, Aspergillus flavus ATCC 204304, 48 hrs), 8 µg/mL (≈ 6.17 µM); against Aspergillus species (48 h, Aspergillus fumigatus ATCC 204305, 48 hrs), 16 µg/mL (≈ 12.3 µM); in the assay with Candida species (24 h, Candida albicans ATCC 10231, 24 hrs), 4 µg/mL (≈ 3.08 µM); with Candida species (24 h, Candida glabrata LSPQ 0250, 24 hrs), 4 µg/mL (≈ 3.08 µM). In addition, the minimum inhibitory concentration (MIC) was determined as 8 µg/mL (≈ 6.17 µM) against Candida species (24 h, Candida krusei LSPQ 0309, 24 hrs); 4 µg/mL (≈ 3.08 µM) in the assay with Candida species (24 h, Candida lusitaniae ATCC 200953, 24 hrs); 4 µg/mL (≈ 3.08 µM) against Candida species (48 h, Candida albicans ATCC 10231, 48 hrs); 8 µg/mL (≈ 6.17 µM) in the assay on Candida species (48 h, Candida glabrata LSPQ 0250, 48 hrs); 8 µg/mL (≈ 6.17 µM) in the assay with Candida species (48 h, Candida krusei LSPQ 0309, 48 hrs); 4 µg/mL (≈ 3.08 µM) against Candida species (48 h, Candida lusitaniae ATCC 200953, 48 hrs).

One may read the MIC as the lowest concentration that inhibits growth of the organism. Read a low MIC as greater potency.
